One test has as its target T1, NURR-1/RXRα (Homo sapiens, UniProt P19793).
T1 construct: expressed in transfected cells; host or cells: Cos-7 cells
Briefly: Transactivation test, NURR-1-Gal4/RXRα, luciferase reporter in Cos-7 cells. The class given is cell-based. Particulars: for Emax: COS-7, induction level relative to reference XCT0135908 at 2×10^−5 M (=100%), read-out: hNurr1_RXRaFL Emax (%); for EC50: Cos-7 cells, NURR-1-Gal4/RXRα, luciferase reporter, read-out: hNurr1_RXRaFL EC50. A general note: A reporter such as luciferase makes a cellular process visible.

In a further test the target is T2, NURR-1/RXRγ (Homo sapiens, UniProt P48443).
T2 construct: expressed in transfected cells; host or cells: Cos-7 cells
In words: Transactivation test, NURR-1-Gal4/RXRγ, luciferase reporter in Cos-7 cells. Format: cell-based. Particulars: for Emax: COS-7, induction level relative to reference XCT0135908 at 2×10^−5 M (=100%), read-out: hNurr1_RXRgFL Emax (%); for EC50: Cos-7 cells, NURR-1-Gal4/RXRγ, luciferase reporter, read-out: hNurr1_RXRgFL EC50.

Where only a bound is given, the exact number is not on record here.

T1 sequence (P19793 whole entry): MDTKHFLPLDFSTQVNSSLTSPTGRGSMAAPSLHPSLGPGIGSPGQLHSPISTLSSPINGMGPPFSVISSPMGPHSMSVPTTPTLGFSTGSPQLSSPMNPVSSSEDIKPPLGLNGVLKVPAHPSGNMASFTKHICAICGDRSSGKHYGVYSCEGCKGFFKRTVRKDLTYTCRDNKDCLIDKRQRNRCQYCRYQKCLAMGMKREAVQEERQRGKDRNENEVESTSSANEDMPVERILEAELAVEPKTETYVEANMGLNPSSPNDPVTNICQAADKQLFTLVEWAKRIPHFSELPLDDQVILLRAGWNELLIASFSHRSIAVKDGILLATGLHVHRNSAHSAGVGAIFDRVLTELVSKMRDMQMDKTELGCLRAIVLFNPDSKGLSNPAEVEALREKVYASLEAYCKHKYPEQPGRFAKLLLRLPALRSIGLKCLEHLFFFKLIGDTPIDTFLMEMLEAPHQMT
T1 sequence (P43354 whole entry partner): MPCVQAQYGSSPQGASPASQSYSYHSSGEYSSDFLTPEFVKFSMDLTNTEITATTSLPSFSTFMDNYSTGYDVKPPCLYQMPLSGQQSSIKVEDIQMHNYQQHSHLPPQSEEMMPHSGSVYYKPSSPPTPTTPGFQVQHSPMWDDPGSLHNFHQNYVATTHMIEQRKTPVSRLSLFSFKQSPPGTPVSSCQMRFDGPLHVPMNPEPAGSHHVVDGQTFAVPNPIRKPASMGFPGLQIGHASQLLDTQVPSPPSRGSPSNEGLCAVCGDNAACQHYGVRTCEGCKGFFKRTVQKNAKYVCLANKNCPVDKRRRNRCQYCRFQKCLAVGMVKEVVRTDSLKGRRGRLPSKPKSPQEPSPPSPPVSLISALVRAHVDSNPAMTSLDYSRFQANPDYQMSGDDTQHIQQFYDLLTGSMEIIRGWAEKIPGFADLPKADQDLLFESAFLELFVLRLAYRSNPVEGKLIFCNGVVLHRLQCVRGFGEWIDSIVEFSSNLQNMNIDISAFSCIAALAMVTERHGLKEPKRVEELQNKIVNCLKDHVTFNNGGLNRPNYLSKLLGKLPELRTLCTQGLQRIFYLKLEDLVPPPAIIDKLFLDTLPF
T1 sequence (P04386 1-147 partner limits assumed): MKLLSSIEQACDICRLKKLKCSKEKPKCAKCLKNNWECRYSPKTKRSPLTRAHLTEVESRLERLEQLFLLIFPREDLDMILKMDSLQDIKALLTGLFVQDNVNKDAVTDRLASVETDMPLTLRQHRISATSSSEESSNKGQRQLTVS
T2 sequence (P48443 whole entry): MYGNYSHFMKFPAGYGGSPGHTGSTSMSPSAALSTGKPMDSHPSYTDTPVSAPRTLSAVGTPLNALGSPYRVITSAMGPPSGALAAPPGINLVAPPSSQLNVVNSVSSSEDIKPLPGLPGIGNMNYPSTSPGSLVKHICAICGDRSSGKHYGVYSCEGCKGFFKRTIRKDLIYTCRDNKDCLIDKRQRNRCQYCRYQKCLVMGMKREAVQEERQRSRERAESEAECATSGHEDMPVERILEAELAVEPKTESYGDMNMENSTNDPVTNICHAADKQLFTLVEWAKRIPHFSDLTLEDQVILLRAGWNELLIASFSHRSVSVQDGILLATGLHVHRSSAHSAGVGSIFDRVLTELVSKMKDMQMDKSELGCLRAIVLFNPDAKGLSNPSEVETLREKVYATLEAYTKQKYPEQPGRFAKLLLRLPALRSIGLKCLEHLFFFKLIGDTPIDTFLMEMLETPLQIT
T2 sequence (P43354 whole entry partner): as the sequence (P43354 whole entry partner) above
T2 sequence (P04386 1-147 partner limits assumed): as the sequence (P04386 1-147 partner limits assumed) above

Take `O=C(O)C1CN(c2cccc(N3c4ccc(C(F)(F)F)cc4C4CCCCC43)c2)C1` (stereo not drawn) [Example 144, 1-[3-[6-(trifluoromethyl)-1,2,3,4,4a,9a-hexahydrocarbazol-9-yl]phenyl]azetidine-3-carboxylic acid]: on NURR-1/RXRα, the Emax (as a rule, the greatest response seen or fitted, relative to the assay's reference) was determined as 97% and the EC50 (as a rule, the concentration giving half of the maximal effect) is 0.028 µM. Moreover, on NURR-1/RXRγ, the Emax turned out to be 105% and the EC50 was determined as 0.024 µM.
In the same order, the values of `O=C(O)C1CN(c2cccc(-n3c(=O)n(CC4CCCC4)c4cc(C(F)(F)F)ccc43)c2)C1` [Example 149, 1-[3-[3-(cyclopetnylmethyl)-2-oxo-5-(trifluoromethyl)benzimidazol-1-yl]phenyl]azetidine-3-carboxylic acid] are 99%, 0.008 µM, 97% and 0.019 µM.
Regarding `Cc1cn(-c2cccc(N3CC(C(=O)NS(=O)(=O)C(F)(F)F)C3)c2)c2ccc(C(F)(F)F)cc12` [Example 151, 1-[3-[3-methyl-5-(trifluoromethyl)indol-1-yl]phenyl]-N-(trifluoromethylsulfonyl)azetidine-3-carboxamide], on NURR-1/RXRα, the Emax is 95% and the EC50 is 0.004 µM. In addition, at NURR-1/RXRγ, the Emax came out at 73% and the EC50 was found to be 0.007 µM.
As for `Cc1cn(-c2cccc(N3CC(C(=O)NC(C)C)C3)c2)c2ccc(C(F)(F)F)cc12` [Example 152, N-isopropyl-1-[3-[3-methyl-5-(trifluoromethyl)indol-1-yl]phenyl]azetidine-3-carboxamide], on NURR-1/RXRα, the maximal response (Emax) stood at 116% and the EC50 was 0.01 µM. Moreover, on NURR-1/RXRγ, the Emax amounted to 116% and the EC50 is 0.01 µM.
As to `Cc1cn(-c2cccc(N3CC(C(=O)NCCN(C)C)C3)c2)c2ccc(C(F)(F)F)cc12` [Example 153, N-(2-dimethylaminoethyl)-1-[3-[3-methyl-5-(trifluoromethyl)indol-1-yl]phenyl]azetidine-3-carboxamide], on NURR-1/RXRα, the Emax was determined as 87% and the EC50 was determined as 0.181 µM. For the same compound, at NURR-1/RXRγ, the Emax was 111% and the EC50 stood at 0.455 µM.
For `Cc1cn(-c2cccc(N3CC(C(=O)NCCCCO)C3)c2)c2ccc(C(F)(F)F)cc12` [Example 156, N-(4-hydroxybutyl)-1-[3-[3-methyl-5-(trifluorometyl)indol-1-yl]phenyl]azetidine-3-carboxamide], at NURR-1/RXRα, the Emax was found to be 105% and the EC50 came out at 0.003 µM. Also, on NURR-1/RXRγ, the Emax came out at 117% and the EC50 amounted to 0.004 µM.
In the case of `Cc1cn(-c2cccc(N3CC(C(=O)NCC(O)CO)C3)c2)c2ccc(C(F)(F)F)cc12` (stereo not drawn) [Example 157, N-(2,3-dihydroxypropyl)-1-[3-[3-methyl-5-(trifluoromethyl)indol-1-yl]phenyl]azetidine-3-carboxamide], at NURR-1/RXRα, the Emax was 120% and the EC50 is 0.003 µM. Further, at NURR-1/RXRγ, the Emax is 114% and the EC50 was determined as 0.006 µM.
The like results for `Cc1cn(-c2cccc(N3CC(C(=O)NC(CO)CO)C3)c2)c2ccc(C(F)(F)F)cc12` [Example 161, N-[2-hydroxy-1-(hydroxymethyl)ethyl]-1-[3-[3-methyl-5-(trifluoromethyl)indol-1yl]phenyl]azetidine-3-carboxamide] were, in that order, 113%, 0.009 µM, 103% and 0.023 µM.
Regarding `Cc1cn(-c2cccc(N3CC(C(=O)NC4CCN(C)CC4)C3)c2)c2ccc(C(F)(F)F)cc12` [Example 162, N-(1-methyl-4-piperidyl)-1-[3-[3-methyl-5-(trifluromethyl)indol-1-yl]phenyl]azetidine-3-carboxamide], at NURR-1/RXRα, the Emax turned out to be 100% and the EC50 amounted to 0.823 µM. Further, on NURR-1/RXRγ, the Emax was found to be 93% and the EC50 was 1.38 µM.
In the same order, the values of `Cc1cn(-c2cccc(N3CC(C(=O)NC4COC4)C3)c2)c2ccc(C(F)(F)F)cc12` [Example 163, 1-[3-[3-methyl-5-(trifluoromethyl)indol-1-yl]phenyl]-N-(oxetan-3-yl)azetidine-3-carboxamide] are 123%, 0.007 µM, 125% and 0.009 µM.
The like results for `Cc1cn(-c2cccc(N3CC(C(=O)NCCCN4CCNCC4)C3)c2)c2ccc(C(F)(F)F)cc12` [Example 164, 1-[3-[3-methyl-5-(trifluoromethyl)indol-1-yl]phenyl]-N-(3-piperazia-1-ylpropyl)azetidine-3-carboxamide] were, in that order, 85%, 0.723 µM, 88% and 1.65 µM.
In the same order, the values of `Cc1cn(-c2cccc(N3CC(C(=O)N(C)C)C3)c2)c2ccc(C(F)(F)F)cc12` [Example 165, N,N-dimethyl-1-[3-[3-methyl-5-(tirfluormethyl)indol-1-yl]phenyl]azetidine-3-carboxamide] are 103%, 0.015 µM, 108% and 0.02 µM.
Turning to `Cc1cn(-c2cccc(N3CC(C(=O)NC4CCCC4)C3)c2)c2ccc(C(F)(F)F)cc12` [Example 166, N-cyclopetnyl-1-[3-[3-methyl-5-(trifluoromethyl)indol-1-yl]phenyl]azetidine-3-carboxamide], the Emax on NURR-1/RXRα is 104%; at NURR-1/RXRγ it was 113%. Moreover, the EC50 is 0.025 µM on NURR-1/RXRα and 0.041 µM on NURR-1/RXRγ.
In the same order, the values of `Cc1cn(-c2cccc(N3CC(C(=O)NCC(C)C)C3)c2)c2ccc(C(F)(F)F)cc12` [Example 167] are 109%, 131%, 0.025 µM and 0.041 µM.
Regarding `Cc1cn(-c2cccc(N3CC(C(=O)NCCO)C3)c2)c2ccc(C(F)(F)F)cc12` [Example 168], at NURR-1/RXRα, the Emax stood at 102% and the half-maximal effective concentration (EC50) is less than 0.001 µM. Moreover, on NURR-1/RXRγ, the Emax stood at 106% and the EC50 is less than 0.001 µM.
Take `CCCCNC(=O)C1CN(c2cccc(-n3cc(C)c4cc(C(F)(F)F)ccc43)c2)C1` [Example 169, N-butyl-1-[3-[3-methyl-5-(trifluoromethyl)indol-1-yl]phenyl]azetidine-3-carboxamide]: on NURR-1/RXRα, the maximum response (Emax) amounted to 109% and the EC50 was found to be 0.013 µM. Further, at NURR-1/RXRγ, the maximal effect (Emax) amounted to 149% and the EC50 was determined as 0.026 µM.
The like results for `Cc1cn(-c2cccc(N3CC(C(=O)NCCN4CCOCC4)C3)c2)c2ccc(C(F)(F)F)cc12` [Example 170, 1-[3-[3-methyl-5-(trifluoromethyl)indol-1-yl]phenyl]-N-(2-morpholinoethyl)azetidine-3-carboxamide] were, in that order, 100%, 0.027 µM, 90% and 0.032 µM.
In the same order, the values of `Cc1cn(-c2cccc(N3CC(C(=O)NC(C)(C)C)C3)c2)c2ccc(C(F)(F)F)cc12` [Example 171, N-tert-butyl-1-[3-[3-methyl-5-(tirfluoromethyl)indol-1-yl]phenyl]azetidine-3-carboxamide] are 111%, 0.073 µM, 114% and 0.335 µM.

For the origin of these results see US20170066717A1, “NEW PHENYLAZETIDINECARBOXYLATE OR -CARBOXAMIDE COMPOUNDS” (INVENTIVA, priority 2014, published 2017).
